IC50 data for 20 compounds are collected here from patent publication US20240002391A1, “4-ALKOXYPYRROLO[2,1-F][1,2,4]TRIAZINES AND PREPARATION AND USES THEREOF” (BioSplice Therapeutics, Inc., priority 2022, published 2024).

The target in the test is recombinant DYRK1A kinase (Homo sapiens (Human), UniProt Q13627). The test can be described thus: DYRK1A kinase assay (Ser/Thr 18 peptide Z-lyte FRET). Type of test: biochemical. The conditions noted are these: DYRK1A kinase activity, Z-lyte Ser/Thr 18 peptide, 15 μM ATP; method text calls the value IC50; read-out: EC50 (the source's name). Summed up: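 Kinase 0.25 μg/mL + ATP 15 μM + Ser/Thr 18 peptide 4 μM, 1 h RT with cpd (10 μM top, 1:3, 11 pts, n=2). Dev. reagent A 1 h RT. Ex 400, Em 455/520 ratio → % phos. → IC50, nonlinear fit.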
On to `COc1nc(N[C@@H]2CCN(C)CC2(F)F)nn2ccc(-c3ccc4ncccc4c3)c12` [Compound 319, (R)—N-(3,3-Difluoro-1-methylpiperidin-4-yl)-4-methoxy-5-(quinolin-6-yl)pyrrolo[2,1-f][1,2,4]triazin-2-amine], for which the IC50 was found to be 2.2 nM.
In the case of `COc1nc(N[C@H]2CCN(C(C)=O)C[C@H]2F)nn2ccc(-c3ccc4nnn(CC(F)(F)F)c4c3)c12` [Compound 916, 1-((3R,4S)-3-Fluoro-4-((4-methoxy-5-(1-(2,2,2-trifluoroethyl)-1H-benzo[d][1,2,3]triazol-6-yl)pyrrolo [2,1-f][1,2,4]triazin-2-yl)amino)piperidin-1-yl)ethan-1-one], the IC50 amounted to 1.4 nM.
The value for `COc1nc(N[C@@H]2CCN(C(C)=O)CC2(F)F)nn2ccc(-c3cc(F)c4nnn(CC(F)F)c4c3)c12` [Compound 821, (R)-1-(4-((5-(1-(2,2-Difluoroethyl)-4-fluoro-1H-benzo[d][1,2,3]triazol-6-yl)-4-methoxypyrrolo[2,1-f][1,2,4]triazin-2-yl)amino)-3,3-difluoropiperidin-1-yl)ethan-1-one] was 1.9 nM; that for `COc1nc(N[C@H]2C[C@](C)(C(=O)NC3(C)CCC3)C2)nn2ccc(-c3ccc4ncccc4c3)c12` [Compound 1040, trans-3-((4-Methoxy-5-(quinolin-6-yl)pyrrolo[2,1-f][1,2,4]triazin-2-yl)amino)-1-methyl-N-(1-methylcyclobutyl)cyclobutane-1-carboxamide] was 2.7 nM; that for `COc1nc(N[C@H]2C[C@@H]3CN(C(C)=O)C[C@@H]3C2)nn2ccc(-c3ccc4nccnc4c3)c12` [Compound 387, 1-((3aR,5s,6aS)-5-((4-Methoxy-5-(quinoxalin-6-yl)pyrrolo[2,1-f][1,2,4]triazin-2-yl)amino)hexahydrocyclopenta[c]pyrrol-2(1H)-yl)ethan-1-one] was 0.7 nM.
Next, `COc1nc(NCC(C)(C)F)nn2ccc(-c3cnc4nccn4c3)c12` [Compound 924, N-(2-Fluoro-2-methylpropyl)-5-(imidazo[1,2-a]pyrimidin-6-yl)-4-methoxypyrrolo[2,1-f][1,2,4]triazin-2-amine]: 2.1 nM.
`COc1nc(N[C@@H]2CCN(CCO)CC2(F)F)nn2ccc(-c3cc(F)c4nc(C)n(C(C)C)c4c3)c12` [Compound 549, (R)-2-(3,3-Difluoro-4-((5-(4-fluoro-1-isopropyl-2-methyl-1H-benzo[d]imidazol-6-yl)-4-methoxypyrrolo[2,1-f][1,2,4]triazin-2-yl)amino)piperidin-1-yl)ethan-1-ol]: the IC50 was found to be 2.6 nM.
Next, `COc1nc(N[C@H]2C[C@@](C)(C(=O)N(C)C)C2)nn2ccc(-c3ccc4nnn(C)c4c3)c12` [Compound 211, cis-3-((4-Methoxy-5-(1-methyl-1H-benzo[d][1,2,3]triazol-6-yl)pyrrolo[2,1-f][1,2,4]triazin-2-yl)amino)-N,N,1-trimethylcyclobutane-1-carboxamide]: 6.6 nM; `COc1nc(N[C@H]2CCN(CC(C)(C)O)C[C@H]2F)nn2cc(F)c(-c3ccc4ncccc4c3)c12` [Compound 1058, 1-((3R,4S)-3-Fluoro-4-((6-fluoro-4-methoxy-5-(quinolin-6-yl)pyrrolo[2,1-f][1,2,4]triazin-2-yl)amino)piperidin-1-yl)-2-methylpropan-2-ol]: 2.3 nM.
For the compound `COc1nc(N[C@H]2C[C@](C)(N)C2)nn2ccc(-c3ccc4ncnn4c3)c12` [Compound 190, trans-N^1-(5-([1,2,4]Triazolo[1,5-a]pyridin-6-yl)-4-methoxypyrrolo[2,1-f][1,2,4]triazin-2-yl)-3-methylcyclobutane-1,3-diamine], the IC50 worked out at 11.5 nM.
Next, `COc1nc(N[C@H]2C[C@@](C)(NC(=O)C3(C#N)CC3)C2)nn2ccc(-c3ccn4nccc4c3)c12` [Compound 394, 1-Cyano-N-((1s,3s)-3-((4-methoxy-5-(pyrazolo[1,5-a]pyridin-5-yl)pyrrolo[2,1-f][1,2,4]triazin-2-yl)amino)-1-methylcyclobutyl)cyclopropane-1-carboxamide]: 2.1 nM.
The value for `COc1nc(N[C@H]2C[C@](C)(C(=O)N(C)C)C2)nn2ccc(-c3ccc4nc(C)n(CC(F)F)c4c3)c12` [Compound 109, trans-3-((5-(1-(2,2-Difluoroethyl)-2-methyl-1H-benzo[d]imidazol-6-yl)-4-methoxypyrrolo[2,1-f][1,2,4]triazin-2-yl)amino)-N,N,1-trimethylcyclobutane-1-carboxamide] was 1 nM.
Next, `COc1nc(NC2CCC(C)(C#N)CC2)nn2ccc(-c3ccc4nnn(CC(F)F)c4c3)c12` (centres unmarked) [Compound 721, 4-((5-(1-(2,2-Difluoroethyl)-1H-benzo[d][1,2,3]triazol-6-yl)-4-methoxypyrrolo[2,1-f][1,2,4]triazin-2-yl)amino)-1-methylcyclohexane-1-carbonitrile]: 5.7 nM; `COc1nc(NC2CCOCC2)nn2ccc(-c3ccn4nccc4c3)c12` [Compound 36, 4-Methoxy-5-(pyrazolo[1,5-a]pyridin-5-yl)-N-(tetrahydro-2H-pyran-4-yl)pyrrolo[2,1-f][1,2,4]triazin-2-amine]: 12.1 nM; `COc1nc(N[C@H]2CCN(C(C)=O)C[C@H]2F)nn2cc(F)c(-c3ccc4ncccc4c3)c12` [Compound 1061, 1-((3R,4S)-3-Fluoro-4-((6-fluoro-4-methoxy-5-(quinolin-6-yl)pyrrolo[2,1-f][1,2,4]triazin-2-yl)amino)piperidin-1-yl)ethan-1-one]: 0.9 nM.
Turning to `COc1nc(NC2CC3(COC3)C2)nn2ccc(-c3ccc4nccn4c3)c12` [Compound 74, 5-(Imidazo[1,2-a]pyridin-6-yl)-4-methoxy-N-(2-oxaspiro[3.3]heptan-6-yl)pyrrolo[2,1-f][1,2,4]triazin-2-amine], the IC50 is 5.2 nM.
Next, `COc1nc(N[C@@H]2CN(C3COC3)C[C@@H]2F)nn2ccc(-c3cnc4nccn4c3)c12` [Compound 266, N-((3R,4S)-4-Fluoro-1-(oxetan-3-yl)pyrrolidin-3-yl)-5-(imidazo[1,2-a]pyrimidin-6-yl)-4-methoxypyrrolo[2,1-f][1,2,4]triazin-2-amine]: 2.9 nM; `COc1nc(N[C@@H]2CN(C)C[C@@H]2F)nn2ccc(-c3cnc4nccn4c3)c12` [Compound 262, N-((3R,4S)-4-Fluoro-1-methylpyrrolidin-3-yl)-5-(imidazo[1,2-a]pyrimidin-6-yl)-4-methoxypyrrolo[2,1-f][1,2,4]triazin-2-amine]: 3.2 nM.
The value for `COc1nc(N[C@@H]2CCN(C(C)=O)CC2(F)F)nn2ccc(-c3ccc4nnn(CC(F)F)c4c3)c12` [Compound 788, (R)-1-(4-((5-(1-(2,2-Difluoroethyl)-1H-benzo[d][1,2,3]triazol-6-yl)-4-methoxypyrrolo[2,1-f][1,2,4]triazin-2-yl)amino)-3,3-difluoropiperidin-1-yl)ethan-1-one] was 0.7 nM.
The value for `COc1nc(N[C@H]2CC[C@](C)(O)CC2)nn2ccc(-c3ccc4ncc(C#N)n4c3)c12` [Compound 103, 6-(2-((trans-4-hydroxy-4-methylcyclohexyl)amino)-4-methoxypyrrolo[2,1-f][1,2,4]triazin-5-yl)imidazo[1,2-a]pyridine-3-carbonitrile] was 5.9 nM.
